Results reported in patent US20260242753A1, “NOVEL INHIBITORS OF HISTONE […] NUCLEAR LOCALISATION” (The Council of the Queensland Institute of Medical Research, priority 2022, published 2026).

Tested on: SETDB1, CSV, ATF7IP, IMPα1 in H1299 cells
Assay: IFA microscopy of SETDB1, CSV, ATF7IP, IMPα1 in H1299
Format: cell-based, human
Parameters: dose or concentration left out as unconfirmed
Experimental: FIG. 18. […] Protein targets were localized by ASI digital pathology. […] Protein targets were localized by ASI digital pathology.
IFA microscopy and cell culture methods were performed as described in detail, above.

With Mithramycin A [MTH] as the substance, how does the “expression of mesenchymal metastatic marker CSV” value read?
The value was “induced an increase”.

What about the “nuclear expression of SETDB1” value of the same substance?
The value was “no effect”.
